Here are results for six molecules from BindingDB's records for doi:10.1021/jm034056q (Wyeth Research, 2003).

SMILES strings stand for the structures. Bounds are passed on as bounds.

This assay has as its target Beta-lactamase TEM (Escherichia coli) (UniProt P62593). Briefly: In vitro inhibitory activity against Beta-lactamase TEM-1 of class A enzyme.

Beta-lactamase TEM (Escherichia coli), sequence (P62593 whole entry, looked up): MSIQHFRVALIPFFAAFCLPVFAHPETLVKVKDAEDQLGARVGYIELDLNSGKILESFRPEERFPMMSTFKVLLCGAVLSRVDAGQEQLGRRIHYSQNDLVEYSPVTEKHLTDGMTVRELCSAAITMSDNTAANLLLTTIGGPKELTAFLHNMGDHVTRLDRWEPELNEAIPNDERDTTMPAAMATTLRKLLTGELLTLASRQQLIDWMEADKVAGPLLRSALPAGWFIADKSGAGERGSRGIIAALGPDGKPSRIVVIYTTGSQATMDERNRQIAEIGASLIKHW

On to `CC1(C)[C@H](C(=O)O)N2C(=O)[C@@]3(C[C@H]3OC3CCCCC3)[C@H]2S1(=O)=O` [2'-(cyclohexyloxy)-3,3-dimethyl-7-oxo-4-thia-1-azaspiro[bicyclo[3.2.0]heptane-6,1'-cyclopropane]-2-carboxylic acid 4,4-dioxide], for which the IC50 (commonly the concentration needed to halve the response being measured) was above 13000 nM.

`CC(C)(C)[Si](C)(C)O[C@H]1C[C@@]12C(=O)N1[C@@H](C(=O)O)C(C)(C)S(=O)(=O)[C@@H]12` [(2R,5R,6R)-2'-(tert-Butyl-dimethyl-silanyl-oxy)-3,3-dimethyl-7-oxo-4-thia-1-azaspiro[bicyclo[3.2.0]heptane-6,1'-cyclopropane]-2-carboxylic acid 4,4-dioxide]: the IC50 stood at 17000 nM.

`CC1(C)[C@H](C(=O)O)N2C(=O)[C@]3(C[C@@H]3OC3CCCCC3)[C@H]2S1(=O)=O` [(2S,5R,6R)-2'-(cyclohexyloxy)-3,3-dimethyl-7-oxo-4-thia-1-azaspiro[bicyclo[3.2.0]heptane-6,1'-cyclopropane]-2-carboxylic acid 4,4-dioxide] returned an IC50 of 510 nM.

`CC(C)(C)[Si](C)(C)O[C@@H]1C[C@@]12C(=O)N1[C@@H](C(=O)O)C(C)(C)S(=O)(=O)[C@@H]12` [(2S,5R,6R)-2'-(tert-Butyl-dimethyl-silanyl-oxy)-3,3-dimethyl-7-oxo-4-thia-1-azaspiro[bicyclo[3.2.0]heptane-6,1'-cyclopropane]-2-carboxylic acid 4,4-dioxide] yielded an IC50 of 12000 nM.

The molecule `CC(C)(C)[Si](C)(C)O[C@H]1C[C@]12C(=O)N1[C@@H](C(=O)O)C(C)(C)S(=O)(=O)[C@@H]12` [(2S,5R,6R)-2'-(tert-Butyl-dimethyl-silanyl-oxy)-3,3-dimethyl-7-oxo-4-thia-1-azaspiro[bicyclo[3.2.0]heptane-6,1'-cyclopropane]-2-carboxylic acid 4,4-dioxide] gave an IC50 of 650 nM.

The molecule `CC1(C)[C@H](C(=O)O)N2C(=O)[C@@]3(C[C@@H]3OC3CCCCC3)[C@H]2S1(=O)=O` [(2S,5R,6S)-2'-(cyclohexyloxy)-3,3-dimethyl-7-oxo-4-thia-1-azaspiro[bicyclo[3.2.0]heptane-6,1'-cyclopropane]-2-carboxylic acid 4,4-dioxide] displayed an IC50 of 1700 nM.
